One test concerns acyl-CoA:cholesterol acyltransferase (ACAT). The test is described as follows: Inhibitory activity on acyl-CoA:cholesterol acyltransferase (ACAT), microsomal fraction of intestinal mucosa, [1-14C]oleyl-CoA incorporation into cholesterol esters. Format: biochemical, white rabbit. Conditions: compound concentration 0.01 µm; rabbit intestinal mucosa microsomes. As to the method: The enzyme used in the test was prepared according to the method of Heider et al. [J. Lipid Res. 24, 1127 (1983)]. A white rabbit was killed by blood-letting under anesthesia, after which its intestinal mucosa was collected and then homogenized, and microsomal fraction was obtained by stepwise centrifugation. The microsomal fraction was suspended in 0.154 M phosphate buffer (pH 7.4) and stored at -80°C until use.
ACAT activity was determined by a modification of the method of Helgerud et al. [J. Lipid Res. 22, 271 (1981)] by measuring radioactivity incorporated into cholesterol esters from [1-^14C]oleyl-CoA, as an indication. As to the ACAT-inhibitory activity of each compound to be tested, the inhibition rate was calculated by the following equation. Inhibition rate (%) =([ACAT activity of control group which was given solvent]-[ACAT activity of group treated with compound to be tested])/([ACAT activity of control group which was given solvent])x 100 [formula]
Regarding `CCc1cccc(CC)c1NC(=O)Nc1nc(C)sc1-c1ccccc1Cl` [Compound 26, N-[5-(2-Chlorophenyl)-2-methylthiazol-4-yl]-N'-(2,6-diethylphenyl)urea], the Inhibition rate % is listed as 51.4%.

Take `Cc1nc(-c2ccccc2Cl)c(NC(=O)Nc2c(C(C)C)cccc2C(C)C)s1` [Compound 4, N-[4-(2-Chlorophenyl)-2-methylthiazol-5-yl]-N'-(2,6-diisopropylphenyl)urea]: the Inhibition rate % turned out to be 63.9%.

The same test, now with this note: compound concentration 1 (head prints '1 | 0.01 µm'); rabbit intestinal mucosa microsomes.
Compound `CC(C)c1cccc(C(C)C)c1NC(=O)Nc1c(-c2ccccc2Cl)nc(-c2ccccc2)n1Cc1ccccc1` [Compound 36, N-[1-Benzyl-4-(2-chlorophenyl)-2-phenylimidazol-5-yl]-N'-(2,6-diisopropylphenyl)urea] showed an Inhibition rate % of 79.5%.

Take `CC(C)c1cccc(C(C)C)c1NC(=O)Nc1nc(-c2ccccc2)[nH]c1-c1ccccc1Cl` [Compound 45, N-[4(5)-(2-Chlorophenyl)-2-phenylimidazol-5(4)-yl]-N'-(2,6-diisopropylphenyl)urea]: the Inhibition rate % turned out to be 77.9%.

`CC(C)c1cccc(C(C)C)c1NC(=O)Nc1nc(-c2ccccc2)n(COCC[Si](C)(C)C)c1-c1ccccc1Cl` [Compound 40, N-[5-(2-Chlorophenyl)-2-phenyl-1-(2-trimethylsilyl)ethoxymethylimidazol-4-yl]-N'-(2,6-diisopropylphenyl)urea] displayed an Inhibition rate % of 99.4%.

Turning to `Cc1nc(-c2ccccc2C)c(NC(=O)Nc2ccc(F)cc2F)s1` [Compound 9, N-(2,4-Difluorophenyl)-N'-[2-methyl-4-(2-methylphenyl)thiazol-5-yl]urea], the Inhibition rate % is 49.4%.

In turn, `CC(C)c1cccc(C(C)C)c1NC(=O)Nc1sc(N(C)C)nc1-c1ccccc1Cl` [Compound 15, N-[4-(2-Chlorophenyl)-2-dimethylaminothiazol-5-yl]-N'-(2,6-diisopropylphenyl)urea] yielded an Inhibition rate % of 99.2%.

`CCCCCc1nc(-c2ccccc2Cl)c(NC(=O)Nc2c(C(C)C)cccc2C(C)C)s1` [Compound 12, N-[4-(2-Chlorophenyl)-2-n-pentylthiazol-5-yl]-N'-(2,6-diisopropylphenyl)urea] yielded an Inhibition rate % of 96.2%.

In turn, `Cc1nc(-c2ccccc2C)c(NC(=O)Nc2c(C(C)C)cccc2C(C)C)s1` [Compound 8, N-(2,6-DiisopropylphenyI)-N'-[2-methyl-4-(2-methylphenyl)thiazol-5-yl]urea] showed an Inhibition rate % of 99.1%.

With `Cc1nc(-c2ccccc2Cl)c(NC(=O)Nc2ccc(F)cc2F)s1` [Compound 6, N-[4-(2-Chlorophenyl)-2-methylthiazol-5-yl]-N'-(2,4-difluorophenyl)urea], the Inhibition rate % stood at 46.1%.

As for `CCc1cccc(CC)c1NC(=O)Nc1sc(C)nc1-c1ccccc1Cl` [Compound 5, N-[4-(2-Chlorophenyl)-2-methylthiazol-5-yl]-N'-(2,6-diethylphenyl)urea], the Inhibition rate % came out at 97.8%.

`COc1ccc(Cn2c(-c3ccccc3)nc(NC(=O)Nc3c(C(C)C)cccc3C(C)C)c2-c2ccccc2Cl)cc1` [Compound 44, N-[5-(2-Chlorophenyl)-1-(4-methoxybenzyl)-2-phenylimidazol-4-yl]-N'-(2,6-diisopropylphenyl)urea] registered an Inhibition rate % of 99.2%.

Compound `COCn1c(-c2ccccc2)nc(NC(=O)Nc2c(C(C)C)cccc2C(C)C)c1-c1ccccc1Cl` [Compound 42, N-[5-(2-Chlorophenyl)-1-methoxymethyl-2-phenylimidazol-4-yl]-N'-(2,6-diisopropylphenyl)urea] yielded an Inhibition rate % of 99.2%.

For the compound `CC(C)c1cccc(C(C)C)c1NC(=O)Nc1nc(N2CCOCC2)sc1-c1ccccc1Cl` [Compound 24, N-[5-(2-Chlorophenyl)-2-(N-morpholino)thiazol-4-yl]-N'-(2,6-diisopropylphenyl)urea], the Inhibition rate % is given as 97.9%.

In turn, `CC(C)c1cccc(C(C)C)c1NC(=O)Nc1sc(N2CCOCC2)nc1-c1ccccc1Cl` [Compound 21, N-[4-(2-Chlorophenyl)-2-(N-morpholino)thiazol-5-yl]-N'-(2,6-diisopropylphenyl)urea] gave an Inhibition rate % of 99.8%.

The values above are taken from EP0761658A1, “Azole-phenyl urea derivatives as ACAT inhibitors and their production” (NIHON NOHYAKU CO., LTD., priority 1995, dated 1997).
